In PMC8648872, “A host-directed macrocyclic peptide therapeutic for MDR gram negative bacterial infections” (Scientific Reports, 2021):
Where a SMILES comes first, the peptide text is derived from it. Bridges are numbered along the chain shown (N, C = ends).

How the values were obtained:
[1] = Stability in aqueous media; type: physicochemical; conditions: including acidic solutions as low as pH 2.0; preliminary, data not shown
[2] = tested on: Kp-1705 (K. pneumoniae BAA-1705); test: Kp-1705 bacteremic sepsis, survival; type: in vivo, BALB/c mice; conditions: for long term (≥ 28 days) survival: Kp-1705 i.p. in BALB/c mice
Protocol: (§1) BALB/c mice (Jackson Laboratories) 8–10 weeks of age were acclimated (3–5 to a cage for at least 5 days prior to infection) in a thermostatically controlled room with 12 h light/dark cycle. Cryopreserved K. pneumoniae cells were thawed and adjusted to a density of 6–10 × 10^8 CFU/ml, confirmed by plating on trypticase soy agar (TSA) plates. E. coli BAA-2340 was grown to log-phase in trypticase soy broth, pelleted, washed with PBS, and resuspended in PBS at 0.5–1 × 10^9 CFU/ml. Mice were infected by i.p. injection of 2–5 × 10^8 CFU of Kp-1705 or 3–6 × 10^7 CFU of E. coli BAA-2340 using a 28 g needle in a volume of 0.5 ml. Post-infection, mice were observed three times a day for at least 4 days and then daily for 28 days. Mice were euthanized when they became moribund. All experiments used both male and female mice and were repeated at least twice.

RAW 264.7 macrophages = test: TNF release by LPS-stimulated RAW 264.7 cells; type: cell-based, mouse; conditions: RAW 264.7, 5 ng/ml LPS, 2 h, ELISA
Protocol: Mouse RAW 264.7 macrophages (RAW cells; ATCC, TIB-71) were grown in Dulbecco’s Modified Eagle Medium (DMEM) with 10% heat-inactivated fetal bovine serum (HI-FBS) with 100 U/ml penicillin/streptomycin, and suspended to 2–3 × 10^6 cells/ml in fresh media before use.
RAW cells were seeded into 48-well tissue culture plates at 1–1.5 × 10^5 cells/well and allowed to adhere overnight. Cells were washed twice and suspended in DMEM with 1% FBS with 0–5 µg/ml of MTD12813 immediately followed by addition of 5 ng/ml (25 EU/ml) of E. coli 0111:B4 LPS (Sigma L4391). Plates were incubated for 2 h at 37 °C in 5% CO2. Well contents were removed, clarified by centrifugation, and supernatants frozen at − 80 °C. Supernatant TNF was quantified by mouse TNF ELISA (Invitrogen, Cat #BMS607-3).

E. coli BAA-2340 = test: CRE E. coli BAA-2340 septicemia, survival; type: in vivo, BALB/c mice; conditions: KPC+ E. coli BAA-2340 i.p., saline controls 10%
Protocol: as §1

plasma cytokines = test: Plasma cytokines in uninfected (sham infected) mice; type: in vivo, BALB/c mice; conditions: single i.p. 1.25 mg/kg
Protocol: EDTA-anticoagulated blood was collected aseptically by terminal cardiac puncture and analyzed for complete blood cell count using an Element HT5 hematology analyzer (Heska). Blood plasma and clarified peritoneal lavage were prepared by two-step centrifugation described previously. Plasma cytokine levels were quantified using a mouse-specific MILLIPLEX MAP kit (Millipore Cat# MCYTMAG-70K) as described.
Supplemental Fig. 3. Transient stimulation of cytokines by MTD12813. Sham infected mice were injected i.p with PBS and treated i.p. 1 h later with 1.25 mg/kg MTD12813 (M) or saline (S). Four or 24 h post sham infection, animals were euthanized and plasma samples quantified by multiplex cytokine analysis. P values calculated using ANOVA with Uncorrected Fisher’s LSD comparing saline and […]

In the case of CC[C@H](C)[C@@H]1NC(=O)[C@@H]2CSSC[C@H](NC(=O)[C@H]([C@@H](C)CC)NC(=O)[C@@H]3CSSC[C@H](NC1=O)C(=O)N[C@@H](C(C)C)C(=O)NCC(=O)N[C@@H](CCCNC(=N)N)C(=O)NCC(=O)N3)C(=O)N[C@@H](C(C)C)C(=O)N[C@@H](CCCNC(=N)N)C(=O)N[C@@H](CCCNC(=N)N)C(=O)N[C@@H](CCCNC(=N)N)C(=O)N2 [MTD12813] (cyclo(CICVGRGCICVRRR); disulfide 1-10, 3-8), the “stability in aqueous media” value [1] is reported as “exceedingly stable”, the “long term (≥ 28 days) survival” value ([2]; single i.p. dose 1.25 mg/kg 1 h p.i.) is reported as 100% and the “long term (≥ 28 days) survival” value ([2]; single i.p. dose 5 mg/kg 1 h p.i.) is reported as 100%. For the same compound, the “long term survival, timing of treatment” value ([2]; Kp-1705 i.p., single i.p. 1.25 mg/kg 1 h after infection (+1 h)) was “survived long term”, the “long term survival, timing of treatment” value ([2]; Kp-1705 i.p., single i.p. 1.25 mg/kg 1 h before infection (−1 h)) was “survived long term” and the “long term survival, timing of treatment” value ([2]; Kp-1705 i.p., single i.p. 1.25 mg/kg 3 h after infection (+3 h), P = 3.9 × 10^–3) was “half”. The “long term survival, timing of treatment” value ([2]; Kp-1705 i.p., single i.p. 1.25 mg/kg 3 h prior to infection (−3 h)) was “nearly equivalent efficacy”, the “survival benefit versus saline” value ([2]; Kp-1705 i.p., single i.p. dose 0.5 mg/kg 1 h p.i., P = 1.1 × 10^–3) was “survival benefit was still statistically significant” and the “concentration for 50% TNF suppression relative to RTD-1” value (RAW 264.7 macrophages) was “ca. fourfold lower concentration than RTD-1”. For the same compound, the “survival ≥ 28 days” value (E. coli BAA-2340; single i.p. injection 1.25 mg/kg 1 h p.i.) was 100%, the “survival ≥ 28 days” value (E. coli BAA-2340; single i.p. injection 5 mg/kg 1 h p.i.) was 100% and the “plasma IL-5, IL-6 and CXCL1 versus vehicle” value (plasma cytokines; 4 h collection point) was “significantly elevated”. For the same compound, the “plasma IL-5, IL-6 and CXCL1” value (plasma cytokines; 24 h) was “returned to baseline”.
